What was measured:
Assay type in all cases: cell-based
Conditions in all cases: inoculum about 10^4 CFU/ml, 18-24 h at 37° C.
Staph. aureus Tour L 165 = assay: MIC, standard dilution test, Staph. aureus Tour L 165
Protocol: (§1) ISOSENSITEST broth (Oxoid) and TOLLD-HEWITT broth (Difco) are used for growing staphylococci and streptococci, respectively. Broth cultures are diluted so that the final inoculum is about 10^4 colony forming units/ml (CFU/ml).

[1] = tested on: Proteus vulgaris ATCC 881; assay: MIC, standard dilution test, Proteus vulgaris ATCC 881
Protocol: as §1

Strep. mitis L 796 = assay: MIC, standard dilution test, Strep. mitis L 796
Protocol: as §1

Strep. pneumoniae UC41 = assay: MIC, standard dilution test, Strep. pneumoniae UC41
Protocol: as §1

[2] = tested on: Pseudomonas aeruginosa ATCC 10145; assay: MIC, standard dilution test, Pseudomonas aeruginosa ATCC 10145
Protocol: as §1

[3] = tested on: Staph. haemolyticus L 602; assay: MIC, standard dilution test, Staph. haemolyticus L 602
Protocol: as §1

[4] = tested on: Neisseria gonorrhoeae ISM68/126; assay: MIC, standard dilution test, Neisseria gonorrhoeae ISM68/126
Protocol: as §1

Strep. pyogenes C 203 = assay: MIC, standard dilution test, Strep. pyogenes C 203
Protocol: as §1

[5] = tested on: Strep. faecalis ATCC 7080; assay: MIC, standard dilution test, Strep. faecalis ATCC 7080
Protocol: as §1

[6] = tested on: Haemophilus influenzae ATCC 19418; assay: MIC, standard dilution test, Haemophilus influenzae ATCC 19418
Protocol: as §1

[7] = tested on: Staph. epidermidis ATCC 12228; assay: MIC, standard dilution test, Staph. epidermidis ATCC 12228
Protocol: as §1

[8] = tested on: Escherichia coli SKF 12140; assay: MIC, standard dilution test, Escherichia coli SKF 12140
Protocol: as §1

Molecule | Minimal inhibitory concentration (MIC) (Staph. aureus Tour L 165) | Minimal inhibitory concentration (MIC) [1] | Minimal inhibitory concentration (MIC) (Strep. mitis L 796) | Minimal inhibitory concentration (MIC) (Strep. pneumoniae UC41) | Minimal inhibitory concentration (MIC) [2] | Minimal inhibitory concentration (MIC) [3] | Minimal inhibitory concentration (MIC) [4] | Minimal inhibitory concentration (MIC) (Strep. pyogenes C 203) | Minimal inhibitory concentration (MIC) [5] | Minimal inhibitory concentration (MIC) [6] | Minimal inhibitory concentration (MIC) [7] | Minimal inhibitory concentration (MIC) [8]
NC1C(=O)NC2Cc3ccc(c(Cl)c3)Oc3cc4cc(c3OC3CCOC3=O)Oc3ccc(cc3Cl)C(O)C3NC(=O)C(NC(=O)C4NC(=O)C(NC2=O)c2cc(O)cc(c2)Oc2cc1ccc2O)c1ccc(O)c(c1)-c1c(O)cc(O)cc1C(C(=O)OC1CCOC1=O)NC3=O (stereo not drawn) [Compound 23, O^56-(tetrahydro-2-oxo-3-furanyl)deglucoteicoplanin (tetrahydro-2-oxo-3-furanyl) ester] | 0.5 | > 128 | 2 | 0.5 | > 128 | 8 | > 128 | 2 | 1 | > 128 | 0.25 | > 128
NCCNC(=O)C(CCO)OC(=O)C1NC(=O)C2NC(=O)C(NC(=O)C3NC(=O)C4NC(=O)C(Cc5ccc(c(Cl)c5)Oc5cc3cc(c5OC(CCO)C(=O)NCCN)Oc3ccc(cc3Cl)C2O)NC(=O)C(N)c2ccc(O)c(c2)Oc2cc(O)cc4c2)c2ccc(O)c(c2)-c2c(O)cc(O)cc21 (stereo not drawn) [Compound 24] | 0.25 | 128 | 0.125 | 0.25 | > 128 | 0.25 | 128 | 0.125 | 0.5 | > 128 | 0.125 | 32
O-(2-(3-(4-(3-amino-propyl)amino)butyl)amino)propyl)amino)-1-hydroxy-2-oxoethyl)teicoplanin aglycone 1-(3-(4-(3-aminopropyl) amino)butyl)amino)propyl)amino)carbonyl)-3-hydroxy-propyl ester [Compound 25] | 0.25 | 64 | 0.125 | 0.125 | > 128 | 0.25 | > 128 | 0.125 | 1 | > 128 | 0.125 | 32
O^56 -(2-bromoethyl)deglucoteicoplanin phenylmethyl ester [Compound 19] | 1 | > 128 | 0.25 | 0.5 | > 128 | 4 | > 128 | 0.25 | 4 | > 128 | 0.5 | > 128
